Measurements from ChEMBL document CHEMBL3885861, “Open TG-GATES”.

Species on record: Rattus norvegicus
Assay: Open TG-GATES - Regimen: Daily Repeat
Type: toxicity, organism-based, Sprague-Dawley
Parameters: regimen Daily Repeat, gender Male, age 6 weeks
Details: in vivo, po, route gavage; for APTT / Bas / Eos / Fbg / Hb / Ht / Lym / MCH / MCHC / MCV / Mono / Neu / PT / Plat / RBC / Ret / WBC: tissue Blood; for KIDNEY_L / KIDNEY_R / KIDNEY_TOTAL: tissue Kidney; for LIVER: tissue Liver; for A/G / ALP / ALT / AST / BUN / CRE / Ca / Cl / DBIL / GLC / IP / K / LDH / Na / PL / RALB / TBIL / TC / TG / TP / gamma-GTP: tissue Plasma
[1] = 300 mg/kg, 72 h, dose level Middle, time 3 day
[2] = 300 mg/kg, […], dose level Middle, time 7 day
[3] = 300 mg/kg, […], dose level Middle, time 14 day
[4] = 300 mg/kg, […], dose level Middle, time 28 day
[5] = 1000 mg/kg, 72 h, dose level High, time 3 day
[6] = 1000 mg/kg, […], dose level High, time 7 day
[7] = 1000 mg/kg, […], dose level High, time 14 day
[8] = 1000 mg/kg, […], dose level High, time 28 day

CN/C(=N/CCSCc1nc[nH]c1C)NC#N [CIMETIDINE]
TERMINAL_BW [1]: 228.5 g
APTT [1]: 18.9 s
Bas [1]: 0%
Eos [1]: 1%
Fbg [1]: 228.2 mg/dL
Hb [1]: 13.1 g/dL
Ht [1]: 39.2%
Lym [1]: 80%
MCH [1]: 21.3 pg
MCHC [1]: 33.6%
MCV [1]: 63.5 fL
Mono [1]: 2.6%
Neu [1]: 14.8%
PT [1]: 12.4 s
Plat [1]: 125.9 x10_4/uL
RBC [1]: 616.6 x10_4/ul
Ret [1]: 6%
WBC [1]: 104.1 x10_2/uL
KIDNEY_L [1]: 1 g
KIDNEY_R [1]: 1 g
KIDNEY_TOTAL [1]: 2 g
LIVER [1]: 11.4 g
A/G [1]: 1.6
ALP [1]: 1094.2 IU/L
ALT [1]: 37.6 IU/L
AST [1]: 67.2 IU/L
BUN [1]: 15.8 mg/dL
CRE [1]: 0.4 mg/dL
Ca [1]: 11.1 mg/dL
Cl [1]: 102.4 meq/L
DBIL [1]: 0.1 mg/dL
GLC [1]: 195 mg/dL
IP [1]: 7.2 mg/dL
K [1]: 4.1 meq/L
LDH [1]: 140.8 IU/L
Na [1]: 140.8 meq/L
PL [1]: 156.2 mg/dL
RALB [1]: 3.5 g/dL
TBIL [1]: 0.2 mg/dL
TC [1]: 79.2 mg/dL
TG [1]: 119.8 mg/dL
TP [1]: 5.7 g/dL
gamma-GTP [1]: 0.6 IU/L
TERMINAL_BW [2]: 259.4 g
TERMINAL_BW [3]: 317.5 g
TERMINAL_BW [4]: 390.1 g
APTT [2]: 19.2 s
Bas [2]: 0%
Eos [2]: 1%
Fbg [2]: 222.6 mg/dL
Hb [2]: 13.6 g/dL
Ht [2]: 40.9%
Lym [2]: 78.2%
MCH [2]: 21 pg
MCHC [2]: 33.1%
MCV [2]: 63.2 fL
Mono [2]: 2.6%
Neu [2]: 16.6%
PT [2]: 12.6 s
Plat [2]: 127.8 x10_4/uL
RBC [2]: 646.8 x10_4/ul
Ret [2]: 5.3%
WBC [2]: 107.7 x10_2/uL
APTT [3]: 18.9 s
Bas [3]: 0%
Eos [3]: 1%
Fbg [3]: 222.4 mg/dL
Hb [3]: 14.2 g/dL
Ht [3]: 42.9%
Lym [3]: 80%
MCH [3]: 20 pg
MCHC [3]: 32.9%
MCV [3]: 60.6 fL
Mono [3]: 2.8%
Neu [3]: 15.8%
PT [3]: 12.7 s
Plat [3]: 125.7 x10_4/uL
RBC [3]: 709.6 x10_4/ul
Ret [3]: 4.3%
WBC [3]: 117.5 x10_2/uL
APTT [4]: 18.7 s
Bas [4]: 0%
Eos [4]: 1%
Fbg [4]: 225.2 mg/dL
Hb [4]: 14.6 g/dL
Ht [4]: 42.1%
Lym [4]: 82.6%
MCH [4]: 19.5 pg
MCHC [4]: 34.6%
MCV [4]: 56.3 fL
Mono [4]: 2.2%
Neu [4]: 13.2%
PT [4]: 13 s
Plat [4]: 108.2 x10_4/uL
RBC [4]: 747.2 x10_4/ul
Ret [4]: 2.5%
WBC [4]: 140.1 x10_2/uL
KIDNEY_L [2]: 1.1 g
KIDNEY_R [2]: 1.1 g
KIDNEY_TOTAL [2]: 2.2 g
KIDNEY_L [3]: 1.2 g
KIDNEY_R [3]: 1.2 g
KIDNEY_TOTAL [3]: 2.4 g
KIDNEY_L [4]: 1.4 g
KIDNEY_R [4]: 1.4 g
KIDNEY_TOTAL [4]: 2.8 g
LIVER [2]: 12.3 g
LIVER [3]: 14.6 g
LIVER [4]: 16.3 g
A/G [2]: 1.5
ALP [2]: 951.8 IU/L
ALT [2]: 32.2 IU/L
AST [2]: 64.6 IU/L
BUN [2]: 17.6 mg/dL
CRE [2]: 0.4 mg/dL
Ca [2]: 10.8 mg/dL
Cl [2]: 102.4 meq/L
DBIL [2]: 0.094 mg/dL
GLC [2]: 234.6 mg/dL
IP [2]: 7.6 mg/dL
K [2]: 3.8 meq/L
LDH [2]: 168 IU/L
Na [2]: 141.4 meq/L
PL [2]: 156.2 mg/dL
RALB [2]: 3.4 g/dL
TBIL [2]: 0.1 mg/dL
TC [2]: 73.4 mg/dL
TG [2]: 120 mg/dL
TP [2]: 5.6 g/dL
gamma-GTP [2]: 1.4 IU/L
A/G [3]: 1.4
ALP [3]: 1080.4 IU/L
ALT [3]: 37.8 IU/L
AST [3]: 65.8 IU/L
BUN [3]: 19.2 mg/dL
CRE [3]: 0.4 mg/dL
Ca [3]: 10.5 mg/dL
Cl [3]: 102 meq/L
DBIL [3]: 0.1 mg/dL
GLC [3]: 216.2 mg/dL
IP [3]: 7.2 mg/dL
K [3]: 3.9 meq/L
LDH [3]: 176.4 IU/L
Na [3]: 140.6 meq/L
PL [3]: 164.2 mg/dL
RALB [3]: 3.3 g/dL
TBIL [3]: 0.2 mg/dL
TC [3]: 77.6 mg/dL
TG [3]: 129 mg/dL
TP [3]: 5.8 g/dL
gamma-GTP [3]: 1 IU/L
A/G [4]: 1.3
ALP [4]: 725.6 IU/L
ALT [4]: 39.4 IU/L
AST [4]: 67 IU/L
BUN [4]: 18.6 mg/dL
CRE [4]: 0.5 mg/dL
Ca [4]: 10.1 mg/dL
Cl [4]: 101.8 meq/L
DBIL [4]: 0.1 mg/dL
GLC [4]: 253 mg/dL
IP [4]: 6.7 mg/dL
K [4]: 3.4 meq/L
LDH [4]: 183.8 IU/L
Na [4]: 140.2 meq/L
PL [4]: 148 mg/dL
RALB [4]: 3.3 g/dL
TBIL [4]: 0.2 mg/dL
TC [4]: 70.6 mg/dL
TG [4]: 128 mg/dL
TP [4]: 5.8 g/dL
gamma-GTP [4]: 1.2 IU/L
TERMINAL_BW [5]: 228.7 g
APTT [5]: 18.9 s
Bas [5]: 0%
Eos [5]: 1%
Fbg [5]: 228.6 mg/dL
Hb [5]: 13.1 g/dL
Ht [5]: 38.7%
Lym [5]: 80.8%
MCH [5]: 21.1 pg
MCHC [5]: 33.8%
MCV [5]: 62.3 fL
Mono [5]: 2.6%
Neu [5]: 14.8%
PT [5]: 12.7 s
Plat [5]: 135 x10_4/uL
RBC [5]: 620.4 x10_4/ul
Ret [5]: 5.4%
WBC [5]: 96.4 x10_2/uL
KIDNEY_L [5]: 1 g
KIDNEY_R [5]: 1 g
KIDNEY_TOTAL [5]: 2 g
LIVER [5]: 11.5 g
A/G [5]: 1.6
ALP [5]: 1004 IU/L
ALT [5]: 40 IU/L
AST [5]: 74 IU/L
BUN [5]: 16.2 mg/dL
CRE [5]: 0.4 mg/dL
Ca [5]: 11 mg/dL
Cl [5]: 102.8 meq/L
DBIL [5]: 0.1 mg/dL
GLC [5]: 201.6 mg/dL
IP [5]: 7 mg/dL
K [5]: 3.8 meq/L
LDH [5]: 190.8 IU/L
Na [5]: 140.8 meq/L
PL [5]: 156.6 mg/dL
RALB [5]: 3.4 g/dL
TBIL [5]: 0.2 mg/dL
TC [5]: 79.8 mg/dL
TG [5]: 118.6 mg/dL
TP [5]: 5.5 g/dL
gamma-GTP [5]: 1.2 IU/L
TERMINAL_BW [6]: 263.6 g
TERMINAL_BW [7]: 302.5 g
TERMINAL_BW [8]: 396.8 g
APTT [6]: 16.9 s
Bas [6]: 0%
Eos [6]: 1%
Fbg [6]: 235.6 mg/dL
Hb [6]: 13.6 g/dL
Ht [6]: 40.7%
Lym [6]: 81%
MCH [6]: 21.1 pg
MCHC [6]: 33.5%
MCV [6]: 62.9 fL
Mono [6]: 2.6%
Neu [6]: 14.4%
PT [6]: 12.6 s
Plat [6]: 121.2 x10_4/uL
RBC [6]: 646.4 x10_4/ul
Ret [6]: 5%
WBC [6]: 94.8 x10_2/uL
APTT [7]: 20.1 s
Bas [7]: 0%
Eos [7]: 1%
Fbg [7]: 225.8 mg/dL
Hb [7]: 14.2 g/dL
Ht [7]: 43.3%
Lym [7]: 80.8%
MCH [7]: 19.5 pg
MCHC [7]: 32.6%
MCV [7]: 59.7 fL
Mono [7]: 2.2%
Neu [7]: 15.4%
PT [7]: 12.9 s
Plat [7]: 128 x10_4/uL
RBC [7]: 726.4 x10_4/ul
Ret [7]: 4.3%
WBC [7]: 110.4 x10_2/uL
APTT [8]: 19.4 s
Bas [8]: 0%
Eos [8]: 1.6%
Fbg [8]: 216.2 mg/dL
Hb [8]: 14.9 g/dL
Ht [8]: 43.2%
Lym [8]: 83.4%
MCH [8]: 19 pg
MCHC [8]: 34.4%
MCV [8]: 55.3 fL
Mono [8]: 2%
Neu [8]: 12.6%
PT [8]: 13.2 s
Plat [8]: 102.4 x10_4/uL
RBC [8]: 782 x10_4/ul
Ret [8]: 2.9%
WBC [8]: 177.7 x10_2/uL
KIDNEY_L [6]: 1.1 g
KIDNEY_R [6]: 1.1 g
KIDNEY_TOTAL [6]: 2.2 g
KIDNEY_L [7]: 1.2 g
KIDNEY_R [7]: 1.3 g
KIDNEY_TOTAL [7]: 2.5 g
KIDNEY_L [8]: 1.4 g
KIDNEY_R [8]: 1.4 g
KIDNEY_TOTAL [8]: 2.8 g
LIVER [6]: 12.9 g
LIVER [7]: 14.1 g
LIVER [8]: 16.4 g
A/G [6]: 1.4
ALP [6]: 1073 IU/L
ALT [6]: 38.4 IU/L
AST [6]: 72.2 IU/L
BUN [6]: 17 mg/dL
CRE [6]: 0.5 mg/dL
Ca [6]: 11 mg/dL
Cl [6]: 101.8 meq/L
DBIL [6]: 0.096 mg/dL
GLC [6]: 216 mg/dL
IP [6]: 7.9 mg/dL
K [6]: 4 meq/L
LDH [6]: 279.2 IU/L
Na [6]: 140.4 meq/L
PL [6]: 165.8 mg/dL
RALB [6]: 3.3 g/dL
TBIL [6]: 0.1 mg/dL
TC [6]: 79.4 mg/dL
TG [6]: 134.4 mg/dL
TP [6]: 5.6 g/dL
gamma-GTP [6]: 1.8 IU/L
A/G [7]: 1.4
ALP [7]: 808 IU/L
ALT [7]: 31.2 IU/L
AST [7]: 62.2 IU/L
BUN [7]: 19 mg/dL
CRE [7]: 0.4 mg/dL
Ca [7]: 10.7 mg/dL
Cl [7]: 101.8 meq/L
DBIL [7]: 0.1 mg/dL
GLC [7]: 213.4 mg/dL
IP [7]: 7.7 mg/dL
K [7]: 3.7 meq/L
LDH [7]: 186.8 IU/L
Na [7]: 141 meq/L
PL [7]: 165.6 mg/dL
RALB [7]: 3.4 g/dL
TBIL [7]: 0.2 mg/dL
TC [7]: 85.8 mg/dL
TG [7]: 111.2 mg/dL
TP [7]: 5.8 g/dL
gamma-GTP [7]: 1.8 IU/L
A/G [8]: 1.1
ALP [8]: 637.6 IU/L
ALT [8]: 40 IU/L
AST [8]: 66.6 IU/L
BUN [8]: 20.4 mg/dL
CRE [8]: 0.6 mg/dL
Ca [8]: 10.2 mg/dL
Cl [8]: 101 meq/L
DBIL [8]: 0.1 mg/dL
GLC [8]: 284 mg/dL
IP [8]: 8.1 mg/dL
K [8]: 3.5 meq/L
LDH [8]: 178.2 IU/L
Na [8]: 140 meq/L
PL [8]: 158.2 mg/dL
RALB [8]: 3.1 g/dL
TBIL [8]: 0.2 mg/dL
TC [8]: 77.8 mg/dL
TG [8]: 113.6 mg/dL
TP [8]: 5.9 g/dL
gamma-GTP [8]: 1.4 IU/L
